Legend:
[1] = system: annual sowthistle (SONOL); test: Pre-emergence orchard floor weeds, greenhouse study; type: in vivo, Sonchus oleraceus; details: 28 Days After Application
Protocol: Greenhouse studies were conducted by seeding species in a loam soil and applying the herbicides to the soil surface using a Cornwall 5 milliliter glass syringe fitted with a TeeJet TN-3 nozzle on an area basis Immediately following herbicide application the pots were irrigated over the top to move the herbicides into the seeding zone. Pots were kept well irrigated throughout the trial. A percent visual weed control assessment was taken 4 weeks after application. Control was determined visually by comparing treated and untreated pots and scored on a 0 to 100 percent scale where 0 corresponds to no control and 100 corresponds to complete kill, or no emergence.

white clover (TRFRE) [2] = test: Granule carrier/particle size, post emergence greenhouse study; type: in vivo, Trifolium repens L.; details: postemergent greenhouse
Protocol: (§1) Greenhouse and field studies evaluated the effect of two granule carriers and two particles sizes on the postemergent broadleaf activity of penoxsulam. The two carriers were a 46-0-0 and 28-4-12 fertilizer blend and the particle sizes averaged 0.75 mm and 2.15 mm.
(§2) Greenhouse studies were applied both post and pre-emergence to broadleaf weeds and sedge reared from seed or nutlet in 12.7″ (32.25 cm) by 8.8″ (22.35 cm) flats of a loam soil. Particle size and carrier were evaluated post emergence, carrier comparisons with the smaller particle size of 0.75 was evaluated pre-emergence. Stage of growth of species at post emergence application: PLAMA and TAROF in the 3 to 5 leaf stage, TRFRE in the 3rd tri-foliate stage and CYPES in the 3 to 4 leaf stage. Post emergence trial design was a replicated block, one species per flat, 3 replicate flats per treatment. Granule treatments were uniformly applied to individual flats on an area basis using a common hand-shaker method. Post emergence applications were made to the flat covering both soil and misted foliage. Trial was sub-irrigated daily, and watered over the top 1 time per week starting 7 days after application to simulate a natural rainfall event. Active weed growth was maintained throughout the study period. Weed control of each species in the post emergence study was assessed at 2, 3 and 4 weeks after treatment. Pre-emergence trial design was 2 species per flat, 4 replicate flats, block design. Pre-emergence applications were made to the soil surface using a common hand shaker method on an area basis. Overhead irrigation was maintained throughout the trial. Weed control of each species in the pre-emergence study was assessed at 2, 3, 4 and 5 weeks after application. Control was determined visually by comparing treated and untreated flats and scored on a 0 to 100 percent scale where 0 corresponds to no control and 100 corresponds to complete kill.

yellow nutsedge (CYPES) = test: Granule carrier comparison, pre-emergence greenhouse study; type: in vivo, Cypres esculentus L.; details: pre-emergent greenhouse
Protocol: as §1, §2

giant foxtail (SETFA) = test: Pre-emergence weed nursery field study; type: in vivo, Setaria faberi; details: weed nursery in the field, 27 Days After Application
Protocol: Field studies were conducted in a non-fumigated weed nursery trial. Weed species were planted in single strips with a row planter at 36 centimeter spacing. Plot size was 3.05×9.2 meters, 4 replicate plots per treatment. Weed species were seeded at appropriate depths and later the same day pre-emergent applications were made to the soil surface. Liquid applications were made using a backpack sprayer calibrated to deliver 187 liters per hectare (L/ha). Applications were made in Fresno, Calif. in June. Sprinkler irrigation was applied at regular intervals throughout study period. Control of each weed species in the study site was made 4 weeks after treatment. Control was determined visually by comparing treated and untreated weeds and scored on a 0 to 100 percent scale where 0 corresponds to no control and 100 corresponds to complete kill or no emergence.

[3] = system: buckhorn plantain (PLALA); test: Postemergent granule herbicides, turfgrass field studies; type: in vivo, Plantago lanceolata L.; details: Table I, 3 sites, Penoxsulam 140 gai/Ha, Scotts Plus 2 1682+841 gae/Ha, Trimec 1121+516+112 gae/Ha
Protocol: (§3) Field studies were conducted in established turfgrass sites containing a natural population of target broadleaf weeds. Replicated trials, containing a minimum of three replications and having individual plots ranging in size from 25 to 50 ft. sq (2.3 to 4.6 square meters), were initiated in the late spring when turf and weeds were actively growing. Granule treatments were uniformly applied to individual plots using a common hand-shaker method. Applications were made in the early morning when dew was present. Natural rainfall and supplemental irrigation were used to maintain healthy turf and active weed growth throughout the study period. Control of each weed species in the study site was made at 2, 4 and 8 weeks after treatment. Control was determined visually by comparing treated and untreated weeds and scored on a 0 to 100 percent scale where 0 corresponds to no control and 100 corresponds to complete kill.

white clover (TRFRE) [4] = test: Granule carrier comparison, pre-emergence greenhouse study; type: in vivo, Trifolium repens L.; details: pre-emergent greenhouse
Protocol: as §1, §2

[5] = system: vine and orchard floor weeds; test: Vine and orchard floor weed control (general statement); type: in vivo; details: APESV, AMARE, POROL, SETFA, ECHCG, ECHCO, SSYIR, SINAR, EPHHE, EROCI, MALNE, MALPA, SONOL, SENVU
[6] = system: broadleaf plantain (PLAMA); test: Granule carrier/particle size, post emergence greenhouse study; type: in vivo, Plantago major L.; details: postemergent greenhouse
Protocol: as §1, §2

[7] = system: pennywort (dollarweed) (HYDSS); test: Granule carrier/particle size, postemergent field study; type: in vivo, Hydrocotyle spp
Protocol: as §1, §3

[8] = carrier 28-4-12, particle size 0.75 mm, 5.6 gai/Ha
[9] = carrier 28-4-12, particle size 0.75 mm, 11.2 gai/Ha
[10] = carrier 28-4-12, particle size 0.75 mm, 22.4 gai/Ha
[11] = carrier 28-4-12, particle size 2.15 mm, 5.6 gai/Ha
[12] = carrier 28-4-12, particle size 2.15 mm, 11.2 gai/Ha
[13] = carrier 28-4-12, particle size 2.15 mm, 22.4 gai/Ha
[14] = carrier 46-0-0, particle size 0.75 mm, 5.6 gai/Ha
[15] = carrier 46-0-0, particle size 0.75 mm, 11.2 gai/Ha
[16] = carrier 46-0-0, particle size 0.75 mm, 22.4 gai/Ha
[17] = carrier 46-0-0, particle size 2.15 mm, 5.6 gai/Ha
[18] = carrier 46-0-0, particle size 2.15 mm, 11.2 gai/Ha
[19] = carrier 46-0-0, particle size 2.15 mm, 22.4 gai/Ha

COc1cnc(OC)n2nc(NS(=O)(=O)c3c(OCC(F)F)cccc3C(F)(F)F)nc12 [Penoxsulam, 2-(2,2-difluoroethoxy)-N-(5,8-dimethoxy[1,2,4]triazolo[1,5-c]-pyrimidin-2-yl)-6-(trifluoromethyl)benzenesulfonamide]
Pre-emergent Percent Mean Control ([1]; 8.8 gai/Ha): 72%
Pre-emergent Percent Mean Control ([1]; 17.5 gai/Ha): 78%
Pre-emergent Percent Mean Control ([1]; 35 gai/Ha): 82%
Pre-emergent Percent Mean Control ([1]; 70 gai/Ha): 87%
Percent Weed Control 27-30 DAA (white clover (TRFRE) [2]; [8]): 40%
Percent Weed Control 27-30 DAA (white clover (TRFRE) [2]; [9]): 57%
Percent Weed Control 27-30 DAA (white clover (TRFRE) [2]; [10]): 68%
Percent Weed Control 27-30 DAA (white clover (TRFRE) [2]; [11]): 12%
Percent Weed Control 27-30 DAA (white clover (TRFRE) [2]; [12]): 38%
Percent Weed Control 27-30 DAA (white clover (TRFRE) [2]; [13]): 58%
Percent Weed Control 27-30 DAA (white clover (TRFRE) [2]; [14]): 22%
Percent Weed Control 27-30 DAA (white clover (TRFRE) [2]; [15]): 58%
Percent Weed Control 27-30 DAA (white clover (TRFRE) [2]; [16]): 72%
Percent Weed Control 27-30 DAA (white clover (TRFRE) [2]; [17]): 5%
Percent Weed Control 27-30 DAA (white clover (TRFRE) [2]; [18]): 33%
Percent Weed Control 27-30 DAA (white clover (TRFRE) [2]; [19]): 37%
Percent Weed Control 35 DAA (yellow nutsedge (CYPES); [8]): 60%
Percent Weed Control 35 DAA (yellow nutsedge (CYPES); [9]): 70%
Percent Weed Control 35 DAA (yellow nutsedge (CYPES); [10]): 89%
Percent Weed Control 35 DAA (yellow nutsedge (CYPES); [14]): 37%
Percent Weed Control 35 DAA (yellow nutsedge (CYPES); [15]): 57%
Percent Weed Control 35 DAA (yellow nutsedge (CYPES); [16]): 79%
Pre-emergent Percent Mean Control (giant foxtail (SETFA); 8.8 gai/Ha): 70%
Pre-emergent Percent Mean Control (giant foxtail (SETFA); 17.5 gai/Ha): 78%
Pre-emergent Percent Mean Control (giant foxtail (SETFA); 35 gai/Ha): 88%
Pre-emergent Percent Mean Control (giant foxtail (SETFA); 70 gai/Ha): 96%
Mean Percent Weed Control ([3]; 4 Weeks After Treatment): 53%
Mean Percent Weed Control ([3]; 8 Weeks After Treatment): 62%
Percent Weed Control 35 DAA (white clover (TRFRE) [4]; [8]): 80%
Percent Weed Control 35 DAA (white clover (TRFRE) [4]; [9]): 98%
Percent Weed Control 35 DAA (white clover (TRFRE) [4]; [10]): 99%
Percent Weed Control 35 DAA (white clover (TRFRE) [4]; [14]): 55%
Percent Weed Control 35 DAA (white clover (TRFRE) [4]; [15]): 75%
Percent Weed Control 35 DAA (white clover (TRFRE) [4]; [16]): 98%
effectiveness in controlling vine and orchard floor weeds [5]: effective
Percent Weed Control 27-30 DAA [6, 8]: 35%
Percent Weed Control 27-30 DAA [6, 9]: 75%
Percent Weed Control 27-30 DAA [6, 10]: 96%
Percent Weed Control 27-30 DAA [6, 11]: 0%
Percent Weed Control 27-30 DAA [6, 12]: 27%
Percent Weed Control 27-30 DAA [6, 13]: 38%
Percent Weed Control 27-30 DAA [6, 14]: 47%
Percent Weed Control 27-30 DAA [6, 15]: 77%
Percent Weed Control 27-30 DAA [6, 16]: 97%
Percent Weed Control 27-30 DAA [6, 17]: 8%
Percent Weed Control 27-30 DAA [6, 18]: 15%
Percent Weed Control 27-30 DAA [6, 19]: 50%
Percent Weed Control 26-27 DAA [7, 9]: 56%
Percent Weed Control 26-27 DAA [7, 10]: 70%
Percent Weed Control 26-27 DAA [7, 12]: 49%
Percent Weed Control 26-27 DAA [7, 13]: 42%
Percent Weed Control 26-27 DAA [7, 15]: 44%
Percent Weed Control 26-27 DAA [7, 16]: 87%
Percent Weed Control 26-27 DAA [7, 18]: 38%
Percent Weed Control 26-27 DAA [7, 19]: 75%

Reference: patent US8455397B2, “Penoxsulam as a turfgrass, vineyard and orchard floor herbicide” (Dow AgroSciences, LLC, priority 2005, dated 2013)
